US11135143B2, “Oral care compositions comprising tin ions” (The Procter & Gamble Company, priority 2020, dated 2021)

Tests used:
[1] = test system: Human gingival epithelial (HGE) cell; assay: Barrier protection analysis by real time cell analyzer (RTCA), impedance / Cell Index; assay type: cell-based; settings: HGE cells
Protocol: Cell Culture Human gingival epithelial (HGE) cell was maintained in a 37° C. incubator with 5% CO2 saturation. Dulbecco's modified Eagle's medium (DMEM, Gibco) containing 10% fetal calf serum, 1% penicillin-streptomycin was used as the complete culture medium, which was changed every 2-3 days. Barrier Protection Analysis by Real Time Cell Analyzer (RTCA) The real time cell analyzer (RTCA) xCELLigence RTCA DP (ACEA Bioscience Inc., San Diego, Calif.) equipment, based on impedance measurement, was used to monitor the barrier protection of polyols. 50 μl complete culture medium was added to E-plates to obtain background readings, followed by the addition of 100 μl of the cell suspension. The E-plates containing 28000 cell/well were incubated at 37° C., 5% CO2 for 22-24 h until cells were confluent. The culture medium was changed to DMEM or DMEM with 1% of polyols, non reducing sugars or combinations and incubated at 37° C., 5% CO2 for 2 h. The barrier disruptor (capsaicin to a final concentration of 75 μM in this case) was added to wells of E-plate. Impedance as reflected by the Cell Index (CI) was recorded continuously for 16-24 h. The CI curve was normalized at the time point just before adding polyols. The normalized CI at 3 h after adding of barrier disruptor was compared to blank control to generate the percentage of barrier function % comprimisation.

[2] = Solubility of tin ions (SnF2) in polyol solutions at various pH; assay type: physicochemical; settings: for Appearance of polyol solution with stannous fluoride: every point above pH of 4; for Appearance of polyol solution with SnF2 (cloudy = formation of Sn(OH)2): pH 8-10, pH raised with NaOH
Protocol: Solubility of Tin Ions at a pH of Greater than 7
A 30% (w/w) solution was prepared for each polyol or combination of polyols was prepared using the appropriate amount of the pure polyol and deionized water. Next, 46 g of the 30% (w/w) polyol solution was placed in a 250 mL glass beaker with a stirring bar on top of a magnetic stirring apparatus. 21 g of deionized water was added to the glass beaker and the magnetic stirring apparatus was started to commence stirring of the solution. A pH electrode was connected to a pH meter (VWR Scientific, Model 9100, Radnor, Pa.) and the pH electrode (ThermoFisher Scientific, Orion 8165BNWP, Waltham, Mass.) was placed in the stirring polyol solution.
0.45 grams of a tin ion source, such as stannous fluoride, was added to the stirring polyol solution. The pH was recorded once the tin ion source was completely added. The pH of the solution was increased by dropwise addition of a 33% (w/w) solution of NaOH.
Solubility of Tin Ions at a pH of Less than 7
0.45 grams of a tin ion source, such as stannous fluoride, was added to the stirring polyol solution. The pH was recorded once the tin ion source was completely added. The pH of the solution was decreased by dropwise addition of a 33% (w/w) solution of HCl.
A solution that appeared cloudy indicated the formation of insoluble tin complexes. At a pH of greater than 7, a cloudy solution indicated the formation of Sn(OH)2. FIG. 1-6 illustrate TABLE 1 by showing the appearance of each solution described in TABLE 1.

[3] = DMEM with 1% polyol(s) for 2 h, then capsaicin 75 μM, normalized CI at 3 h after barrier disruptor compared to blank control (100%)
[4] = pH 2-4, 30% (w/w) polyol solution diluted with water, 0.45 g stannous fluoride, pH lowered with HCl

Compound | Barrier Function ([1]; barrier disruptor capsaicin 75 μM alone, no polyol, normalized CI at 3 h compared to blank control (100%)) [%] | Barrier Function ([1]; barrier disruptor capsaicin 75 μM alone, no polyol, normalized CI at 3 h compared to blank control (100%), listed as capsaicin) [%] | Barrier Function [1, 3] [%] | Barrier Function ([1]; DMEM with 1% polyol(s) for 2 h, then capsaicin 75 μM, normalized CI at 3 h after barrier disruptor compared to blank control (100%), listed as glycerin) [%] | Appearance of polyol solution with stannous fluoride [2] | Appearance of polyol solution with SnF2 (cloudy = formation of insoluble tin complexes) [2, 4] | Appearance of polyol solution with SnF2 (cloudy = formation of insoluble tin complexes) ([2]; pH 4-6) | Appearance of polyol solution with SnF2 (cloudy = formation of insoluble tin complexes) ([2]; pH 6-8) | Appearance of polyol solution with SnF2 (cloudy = formation of Sn(OH)2) [2] | Barrier Function ([1]; DMEM with 1% polyol(s) for 2 h, then capsaicin 75 μM, normalized CI at 3 h after barrier disruptor compared to blank control (100%), listed as sorbitol) [%]
COc1cc(CNC(=O)CCCC/C=C/C(C)C)ccc1O [Capsaicin, capsaicin, reference compound] | 28 | 28 |  |  |  |  |  |  |  | 
OCC(O)CO [Glycerin, reference compound] |  |  | 44 | 44 |  |  |  |  |  | 
OC[C@H]1O[C@H](O[C@H]2O[C@H](CO)[C@@H](O)[C@H](O)[C@H]2O)[C@H](O)[C@@H](O)[C@@H]1O [Trehalose] |  |  | 102 |  | cloudy | clear | cloudy | cloudy | cloudy | 
Isomalt |  |  | 85 |  | cloudy | clear | cloudy | cloudy | cloudy | 
OC[C@@H](O)[C@@H](O)[C@H](O)[C@@H](O)CO [Sorbitol] |  |  | 46 |  |  | clear | cloudy | cloudy | clear | 46
